Test results: patent US9273040B2 (Merck Sharp & Dohme Corp., priority 2011, dated 2016)

What was measured:
[1] = biological target: T1, human Nav1.7 channels stably expressed in HEK 293 cells (Homo sapiens, UniProt Q15858); test: PatchXpress 7000 automated patch-clamp, sodium current; format: cell-based; settings: 22° C., read-out: potency for the Nav 1.7 sodium ion channel (as measured by PatchXpress)
T1 construct: expressed in transfected cells
Text: (§1) To measure state and use-dependent sodium channel inhibition, test compounds were further characterized in an automated PatchXpress® assay (Molecular Devices). Two voltage-clamp protocols were used. 1) Use-dependent protocol: Cells were held at a membrane potential 20 mV negative to the potential at which ˜50% of the channels are inactivated (V0.5 inact). A train of 30 ms depolarizations to −20 mV was applied to the cells expressing Nav1.7 at a frequency of 10 Hz. […] Data was collected in the absence and presence of drug, and after drug washout. 2) A double-pulse protocol was used to measure inactivated state block. Cells were held at a potential 20 mV negative to V0.5 inact. A 8000 ms pre-pulse 7 mV positive to V0.5 inact was given followed by a hyperpolarizing 2 ms pulse to −120 mV and a 20 ms test pulse to −20 mV. Protocol was applied to cells in the absence, presence of compound and after washout. The temperature of PatchXpress instruments was maintained at 22° C. The following recording solutions were used. Internal solution (mM): 30 CsCl, 5 HEPES, 10 EGTA, 120 CsF, 5 NaF, 2MgCl2, pH=7.3 with CsOH, 324 mosmo. External solution (mM): 120 NMDG, 40 NaCl, 1 KCl, 0.5 MgCl2, 5 HEPES, 2.7 CaCl2, pH=7.5 with NMDG-OH.
(§2) For all electrophysiology experiments, offline analysis was used to correct for current rundown and to determine percent inhibition as a function of drug concentration. IC50 values were determined by fitting to the Hill equation.

[2] = biological target: T2, human Nav1.5 channels stably expressed in HEK 293 cells (Homo sapiens, UniProt Q14524); test: as above; format: cell-based; settings: selectivity over Nav1.5
T2 construct: expressed in transfected cells
T2 sequence (Q14524 whole entry): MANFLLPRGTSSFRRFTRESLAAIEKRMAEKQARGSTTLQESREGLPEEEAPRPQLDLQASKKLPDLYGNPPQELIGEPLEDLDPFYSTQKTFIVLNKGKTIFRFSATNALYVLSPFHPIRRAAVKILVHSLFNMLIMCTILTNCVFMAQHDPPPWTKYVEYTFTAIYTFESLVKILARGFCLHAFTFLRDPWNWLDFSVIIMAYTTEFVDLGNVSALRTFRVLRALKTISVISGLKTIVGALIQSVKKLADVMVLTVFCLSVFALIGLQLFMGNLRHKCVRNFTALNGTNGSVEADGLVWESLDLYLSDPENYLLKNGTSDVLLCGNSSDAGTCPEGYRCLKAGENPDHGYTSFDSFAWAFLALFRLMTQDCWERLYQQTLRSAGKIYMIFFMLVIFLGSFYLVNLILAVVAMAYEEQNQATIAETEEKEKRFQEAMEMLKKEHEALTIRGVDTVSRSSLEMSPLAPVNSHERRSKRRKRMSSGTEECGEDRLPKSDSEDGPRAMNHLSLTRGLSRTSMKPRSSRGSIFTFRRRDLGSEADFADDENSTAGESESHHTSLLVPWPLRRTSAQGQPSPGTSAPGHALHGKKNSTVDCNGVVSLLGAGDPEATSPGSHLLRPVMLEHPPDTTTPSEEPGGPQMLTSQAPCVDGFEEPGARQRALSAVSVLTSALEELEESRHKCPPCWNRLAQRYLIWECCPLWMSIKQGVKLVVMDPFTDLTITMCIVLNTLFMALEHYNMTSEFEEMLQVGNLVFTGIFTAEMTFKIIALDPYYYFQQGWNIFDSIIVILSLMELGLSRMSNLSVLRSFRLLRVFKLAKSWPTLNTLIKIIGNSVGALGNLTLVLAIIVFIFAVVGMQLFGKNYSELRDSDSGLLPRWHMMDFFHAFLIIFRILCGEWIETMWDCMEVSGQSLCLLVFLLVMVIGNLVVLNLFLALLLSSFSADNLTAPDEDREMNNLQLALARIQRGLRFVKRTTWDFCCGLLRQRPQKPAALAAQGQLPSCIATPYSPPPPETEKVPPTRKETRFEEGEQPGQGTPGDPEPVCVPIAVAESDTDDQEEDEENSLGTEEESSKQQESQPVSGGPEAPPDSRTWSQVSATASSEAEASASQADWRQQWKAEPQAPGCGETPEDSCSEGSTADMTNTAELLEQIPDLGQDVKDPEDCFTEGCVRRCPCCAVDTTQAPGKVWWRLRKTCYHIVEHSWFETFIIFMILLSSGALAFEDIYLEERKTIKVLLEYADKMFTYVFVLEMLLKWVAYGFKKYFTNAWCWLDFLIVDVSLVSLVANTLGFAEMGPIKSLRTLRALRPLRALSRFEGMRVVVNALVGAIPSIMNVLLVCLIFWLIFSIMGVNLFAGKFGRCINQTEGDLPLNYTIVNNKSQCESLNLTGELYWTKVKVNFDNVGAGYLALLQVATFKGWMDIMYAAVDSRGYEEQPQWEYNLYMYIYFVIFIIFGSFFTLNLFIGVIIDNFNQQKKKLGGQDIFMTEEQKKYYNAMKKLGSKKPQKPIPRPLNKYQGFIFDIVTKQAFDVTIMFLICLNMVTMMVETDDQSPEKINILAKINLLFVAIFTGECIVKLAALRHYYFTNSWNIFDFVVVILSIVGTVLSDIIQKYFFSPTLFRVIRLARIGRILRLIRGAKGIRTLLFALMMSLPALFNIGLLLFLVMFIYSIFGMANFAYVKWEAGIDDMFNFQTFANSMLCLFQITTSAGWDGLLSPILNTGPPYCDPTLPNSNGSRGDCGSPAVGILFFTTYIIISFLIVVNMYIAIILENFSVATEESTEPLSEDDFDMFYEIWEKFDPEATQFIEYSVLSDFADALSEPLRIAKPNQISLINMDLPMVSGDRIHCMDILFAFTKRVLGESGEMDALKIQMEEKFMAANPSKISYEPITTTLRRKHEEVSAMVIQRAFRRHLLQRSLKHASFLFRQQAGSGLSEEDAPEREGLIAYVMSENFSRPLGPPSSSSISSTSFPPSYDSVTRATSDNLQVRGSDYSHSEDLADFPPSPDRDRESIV
Text: as §1, §2

T1 sequence (Q15858 whole entry): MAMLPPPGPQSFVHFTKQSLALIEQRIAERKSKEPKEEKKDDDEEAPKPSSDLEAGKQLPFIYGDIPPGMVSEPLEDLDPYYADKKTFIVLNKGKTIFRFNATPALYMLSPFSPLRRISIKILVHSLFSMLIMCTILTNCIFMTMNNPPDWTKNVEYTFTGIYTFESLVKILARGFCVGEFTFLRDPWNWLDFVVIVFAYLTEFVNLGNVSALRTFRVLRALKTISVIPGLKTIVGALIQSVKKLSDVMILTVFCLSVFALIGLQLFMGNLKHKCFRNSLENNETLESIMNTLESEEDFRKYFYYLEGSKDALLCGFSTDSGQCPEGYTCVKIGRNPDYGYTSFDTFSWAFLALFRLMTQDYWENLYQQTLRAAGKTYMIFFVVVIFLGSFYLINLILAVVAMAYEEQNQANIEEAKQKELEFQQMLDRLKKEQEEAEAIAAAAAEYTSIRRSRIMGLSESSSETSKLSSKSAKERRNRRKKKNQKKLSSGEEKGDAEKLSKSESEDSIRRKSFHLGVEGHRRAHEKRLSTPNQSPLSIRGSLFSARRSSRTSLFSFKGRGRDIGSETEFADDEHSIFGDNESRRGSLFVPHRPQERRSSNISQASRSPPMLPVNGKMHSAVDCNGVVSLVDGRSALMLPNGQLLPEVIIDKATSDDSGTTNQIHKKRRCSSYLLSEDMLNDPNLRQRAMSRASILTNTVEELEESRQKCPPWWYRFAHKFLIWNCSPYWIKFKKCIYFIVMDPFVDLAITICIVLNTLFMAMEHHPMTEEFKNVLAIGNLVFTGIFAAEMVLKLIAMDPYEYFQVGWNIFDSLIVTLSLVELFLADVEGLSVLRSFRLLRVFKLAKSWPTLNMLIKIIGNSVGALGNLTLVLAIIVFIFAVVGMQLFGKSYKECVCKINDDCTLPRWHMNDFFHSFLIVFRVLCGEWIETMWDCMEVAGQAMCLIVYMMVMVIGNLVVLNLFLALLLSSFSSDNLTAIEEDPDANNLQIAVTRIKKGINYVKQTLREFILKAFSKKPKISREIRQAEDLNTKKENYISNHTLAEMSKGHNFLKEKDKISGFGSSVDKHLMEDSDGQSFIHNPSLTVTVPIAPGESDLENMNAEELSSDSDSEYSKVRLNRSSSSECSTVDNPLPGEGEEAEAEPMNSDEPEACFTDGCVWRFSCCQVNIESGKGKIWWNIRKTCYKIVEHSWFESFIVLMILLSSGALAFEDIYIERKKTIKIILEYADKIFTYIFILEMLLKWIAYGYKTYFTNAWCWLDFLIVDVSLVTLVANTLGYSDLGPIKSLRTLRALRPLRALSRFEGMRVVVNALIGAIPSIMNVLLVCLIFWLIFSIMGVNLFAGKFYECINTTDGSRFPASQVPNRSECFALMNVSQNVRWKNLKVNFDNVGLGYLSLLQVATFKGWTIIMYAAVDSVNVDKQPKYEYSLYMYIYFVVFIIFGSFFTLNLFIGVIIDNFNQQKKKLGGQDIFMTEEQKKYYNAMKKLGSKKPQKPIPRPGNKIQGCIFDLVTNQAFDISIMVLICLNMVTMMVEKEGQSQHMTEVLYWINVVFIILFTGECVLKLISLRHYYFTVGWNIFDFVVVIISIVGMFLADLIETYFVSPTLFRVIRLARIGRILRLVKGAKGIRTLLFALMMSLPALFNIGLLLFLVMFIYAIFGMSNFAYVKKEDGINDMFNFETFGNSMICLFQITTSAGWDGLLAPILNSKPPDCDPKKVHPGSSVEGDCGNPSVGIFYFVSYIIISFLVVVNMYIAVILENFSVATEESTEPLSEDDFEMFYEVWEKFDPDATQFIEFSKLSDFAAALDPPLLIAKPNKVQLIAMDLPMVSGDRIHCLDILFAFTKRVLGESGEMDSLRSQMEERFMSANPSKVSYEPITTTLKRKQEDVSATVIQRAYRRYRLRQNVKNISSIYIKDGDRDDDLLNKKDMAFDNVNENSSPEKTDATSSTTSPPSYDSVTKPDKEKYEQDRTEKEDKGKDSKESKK

| Structure (SMILES) | IC50 [1] [nM] | ratio of Nav 1.5:Nav 1.7 potency, determined by PatchXpress measurement [2] |
| --- | --- | --- |
| CCC(O)(C#Cc1ccccc1[C@@H](C)n1c(=O)oc2cc(S(=O)(=O)Nc3ncns3)c(F)cc21)CC [Compound 17-6, 3-{(1R)-1-[2-(3-ethyl-3-hydroxypent-1-yn-1-yl)phenyl]ethyl}-5-fluoro-2-oxo-N-1,2,4-thiadiazol-5-yl-2,3-dihydro-1,3-benzoxazole-6-sulfonamide] | 104 | 91 |
| O=c1oc2cc(S(=O)(=O)Nc3nccs3)c(F)cc2n1Cc1cccc2c1CNCC2F (single isomer, unassigned) [Compound 43-28, (S or R)-5-fluoro-3-[(4-fluoro-1,2,3,4-tetrahydroisoquinolin-8-yl)methyl]-2-oxo-N-1,3-thiazol-2-yl-2,3-dihydro-1,3-benzoxazole-6-sulfonamide] | 120 | 684 |
| C[C@H](c1cccc(C#CCN)c1)n1c(=O)oc2cc(S(=O)(=O)Nc3ncns3)c(F)cc21 [Compound 30-3, (R)-3-(1-(3-(3-aminoprop-1-yn-1-yl)phenyl)ethyl)-5-fluoro-2-oxo-N-(1,2,4-thiadiazol-5-yl)-2,3-dihydrobenzo[d]oxazole-6-sulfonamide] | 28 | 289 |
| C[C@H](c1ccccc1C#Cc1cncn1C)n1c(=O)oc2cc(S(=O)(=O)Nc3ncns3)c(F)cc21 [Compound 17-8, 5-fluoro-3-[(1R)-1-{2-[(1-methyl-1H-imidazol-5-yl)ethynyl]phenyl}ethyl]-2-oxo-N-1,2,4-thiadiazol-5-yl-2,3-dihydro-1,3-benzoxazole-6-sulfonamide] | 64 | 27 |
| O=c1oc2cc(S(=O)(=O)Nc3nccs3)c(F)cc2n1Cc1cccc(Br)c1 [Compound 43-6, 3-(3-bromobenzyl)-5-fluoro-2-oxo-N-1,3-thiazol-2-yl-2,3-dihydro-1,3-benzoxazole-6-sulfonamide] | 162 | 80 |
| CNC1CCc2cccc(Cn3c(=O)oc4cc(S(=O)(=O)Nc5ncns5)ccc43)c2C1 (racemic) [Compound 23-18, (+/−)-3-{[7-(methylamino)-5,6,7,8-tetrahydronaphthalen-1-yl]methyl}-2-oxo-N-1,2,4-thiadiazol-5-yl-2,3-dihydro-1,3-benzoxazole-6-sulfonamide] | 47 | 642 |
| NC1CCc2c(cccc2Cn2c(=O)oc3cc(S(=O)(=O)Nc4ncns4)c(F)cc32)C1 (racemic) [Compound 23-8, (+/−)-3-[(6-amino-5,6,7,8-tetrahydronaphthalen-1-yl)methyl]-5-fluoro-2-oxo-N-1,2,4-thiadiazol-5-yl-2,3-dihydro-1,3-benzoxazole-6-sulfonamide] | 186 | 161 |
| C[C@H](c1ccccc1C1=CCNCCC1)n1c(=O)oc2cc(S(=O)(=O)Nc3ncns3)c(F)cc21 [Compound 16-6, 5-fluoro-2-oxo-3-{(1R)-1-[2-(2,5,6,7-tetrahydro-1H-azepin-4-yl)phenyl]ethyl}-N-1,2,4-thiadiazol-5-yl-2,3-dihydro-1,3-benzoxazole-6-sulfonamide] | 18 | 1692 |
| O=c1oc2cc(S(=O)(=O)Nc3ncns3)c(F)cc2n1Cc1cccc2c1CC(NCCF)CC2 (racemic) [Compound 23-21, (+/−)-5-fluoro-3-({7-[(2-fluoroethyl)amino]-5,6,7,8-tetrahydronaphthalen-1-yl}methyl)-2-oxo-N-1,2.4-thiadiazol-5-yl-2,3-dihydro-1,3-benzoxazole-6-sulfonamide] | 28 | 920 |
| C[C@H](c1ccccc1)n1c(=O)oc2cc(S(=O)(=O)Nc3nccs3)c(F)cc21 [Compound 43-2, (R)-5-fluoro-2-oxo-3-(1-phenylethyl)-N-(thiazol-2-yl)-2,3-dihydrobenzo[d]oxazole-6-sulfonamide] | 68 | 88 |
| O=C(c1ccccc1)N1CCC2(CC1)CC(n1c(=O)oc3cc(S(=O)(=O)Nc4ncns4)c(F)cc31)c1cc(F)ccc1O2 (stereo not drawn) [Compound 39-9, 5-fluoro-3-[6-fluoro-1′-(phenylcarbonyl)-3,4-dihydrospiro[chromene-2,4′-piperidin]-4-yl]-2-oxo-N-1,2,4-thiadiazol-5-yl-2,3-dihydro-1,3-benzoxazole-6-sulfonamide] | 168 | 54 |
| Cc1csc(NS(=O)(=O)c2ccc3c(c2)oc(=O)n3C(C)c2ccccc2)n1 (stereo not drawn) [Compound 40-5, N-(4-methyl-1,3-thiazol-2-yl)-2-oxo-3-(1-phenylethyl)-2,3-dihydro-1,3-benzoxazole-6-sulfonamide] | 1190 | 25 |
| CC1(C)CCC(n2c(=O)oc3cc(S(=O)(=O)Nc4ncns4)c(F)cc32)c2ccccc21 (stereo not drawn) [Compound 39-12, 3-(4,4-dimethyl-1,2,3,4-tetrahydronaphthalen-1-yl)-5-fluoro-2-oxo-N-1,2,4-thiadiazol-5-yl-2,3-dihydro-1,3-benzoxazole-6-sulfonamide] | 159 | 38 |
| O=c1oc2cc(S(=O)(=O)Nc3ncns3)c(F)cc2n1[C@H]1CC2(CCC2)Oc2ccc(F)cc21 [Compound 39-17, 5-fluoro-3-[(4S)-6-fluoro-3,4-dihydrospiro[chromene-2,1′-cyclobutan]-4-yl]-2-oxo-N-1,2,4-thiadiazol-5-yl-2,3-dihydro-1,3-benzoxazole-6-sulfonamide] | 53 | 115 |
| C[C@H](c1ccccc1C#CCN1CCOCC1)n1c(=O)oc2cc(S(=O)(=O)Nc3ncns3)c(F)cc21 [Compound 17-2, 5-fluoro-3-{(1R)-1-[2-(3-morpholin-4-ylprop-1-yn-1-yl)phenyl]ethyl}-2-oxo-N-1,2,4-thiadiazol-5-yl-2,3-dihydro-1,3-benzoxazole-6-sulfonamide] | 332 | 90 |
| C[C@H](c1ccccc1C#CC1CCNC1)n1c(=O)oc2cc(S(=O)(=O)Nc3ncns3)c(F)cc21 (stereo partly drawn) [Compound 17-14, 5-fluoro-2-oxo-3-{(1R)-1-[2-(pyrrolidin-3-ylethynyl)phenyl]ethyl}-N-1,2,4-thiadiazol-5-yl-2,3-dihydro-1,3-benzoxazole-6-sulfonamide] | 34 | 1055 |
| C[C@H](c1ccccc1C#CC(C)(C)N)n1c(=O)oc2cc(S(=O)(=O)Nc3ncns3)c(F)cc21 [Compound 17-10, 3-{(1R)-1-[2-(3-amino-3-methylbut-1-yn-1-yl)phenyl]ethyl}-5-fluoro-2-oxo-N-1,2,4-thiadiazol-5-yl-2,3-dihydro-1,3-benzoxazole-6-sulfonamide] | 56 | 534 |
| O=c1oc2cc(S(=O)(=O)Nc3ncns3)c(F)cc2n1Cc1cccc2c1C1CC1C=C2 (stereo not drawn) [Compound 11-13, 3-(1a,7b-dihydro-1H-cyclopropa[a]naphthalen-7-ylmethyl)-5-fluoro-2-oxo-N-1,2,4-thiadiazol-5-yl-2,3-dihydro-1,3-benzoxazole-6-sulfonamide] | 49 | 50 |
